Source: EP4810494A1, “HPK1 DEGRADATION AGENT AND USE THEREOF IN FIELD OF MEDICINE” (Haisco Pharmaceutical Group Co., Ltd., priority 2023, dated 2025)
Structures can show the parent of a compound that is named as a salt. Where two headings read alike, the source gives them in different places.

Columns and labels:
HPK1 protein = target: T1, HPK1 protein (Homo sapiens, UniProt Q92918); assay: Detection of HPK1 protein expression level in Jurkat cells (24 h); format: cell-based; conditions: 24 hours incubation
T1 construct: host or cells: Jurkat cells
Experimental: Test example 4: Detection of HPK1 protein expression level in Jurkat cells (24 h)
Jurkat cells from ATCC were placed in a RPMI-1640 complete medium (supplemented with 10% FBS and 1% penicillin-streptomycin solution) and cultured at 37°C and 5% CO2. The cells in the logarithmic growth phase were collected, the cell density was adjusted to 5 × 10^5 cells/well with the culture medium, and the cells were added to a 6-well cell culture plate at a volume of 1 mL/well. The compound to be tested was prepared to 2-fold the final concentration, 1 mL of the compounds at different concentrations were added to administration wells, a medium containing 0.2% DMSO was added to control wells, and the plate was incubated at 37°C and 5% CO2 for 24 hours. The cells were collected into a 1.5 mL centrifuge tube, 30 µL of RIPA lysis buffer (containing 1X protease inhibitor cocktail) was added, and the cells were lysed on ice for 15 minutes and centrifuged at 12000 rpm/min at 4°C for 10 minutes. The supernatant was collected and the protein content was determined using the BCA method. The protein sample to be tested was diluted to 0.2 mg/mL, HPK1 was detected using a fully automated protein expression quantitative analyser (ProteinSimple), and the internal reference protein was β-actin (all antibodies were from CST). The software (Compass for SW) of the fully automated protein expression quantitative analyser was used to process the raw data and calculate the peak area after internal reference normalisation and the HPK1 degradation rate relative to the control group. The HPK1 degradation rate was calculated according to formula 4-1, where Aadministration well is the relative peak area of the administration group after internal reference normalisation, and Acontrol well is the relative peak area of the vehicle control group after internal reference normalisation. DC50 values were calculated using a four-parameter non-linear fitting model in Graphpad 8.3.0 software. HPK1_degradation % = 100−(Aadministration well/Acontrol well×100%) [formula] Table 4-1 Degradation activity of test compounds against HPK1 protein in Jurkat cells (24 h)

HPK1 kinase = target: T2, HPK1 kinase (Homo sapiens, UniProt Q92918); assay: HPK1 kinase assay (1 mM ATP); format: biochemical
T2 construct: purchased Carna 07-410
T2 sequence (Q92918 1-346 limits assumed): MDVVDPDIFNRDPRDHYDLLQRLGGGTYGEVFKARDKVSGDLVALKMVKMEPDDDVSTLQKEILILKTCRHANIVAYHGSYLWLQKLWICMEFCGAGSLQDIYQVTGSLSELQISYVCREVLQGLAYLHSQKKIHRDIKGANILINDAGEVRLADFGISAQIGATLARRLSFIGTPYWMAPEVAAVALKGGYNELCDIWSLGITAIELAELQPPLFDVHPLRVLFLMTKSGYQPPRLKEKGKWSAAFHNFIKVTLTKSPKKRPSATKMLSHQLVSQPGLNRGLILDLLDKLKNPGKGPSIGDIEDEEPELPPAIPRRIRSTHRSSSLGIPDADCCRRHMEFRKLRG
Experimental: Test example 5: HPK1 kinase assay (1 mM ATP)
The kinase HPK1 (Carna, Cat.No 07-410) was prepared into 2× kinase solution using 1× kinase buffer. The substrate Fluorescein-PKC (Invitrogen, Cat. No. PV3506) and ATP (working concentration: 1 mM) (Sigma, Cat. No. 2383-5G) were prepared into 2× substrate solution using 1×kinase buffer. The detection reagent was diluted to 2-fold the final concentration using an antibody diluent. 100 nL of compounds at different concentrations and 5 µL of kinase solution were added to each well of a 384-well plate, and the mixture was incubated at room temperature for 10 minutes. After the incubation was completed, 5 µL of substrate solution was added to each well, and the resulting mixture was reacted at room temperature for 90 minutes. After the reaction was completed, 10 µL of detection reagent was added to each well to terminate the reaction, and the mixture was incubated at room temperature for 60 minutes. Fluorescence readings were detected using an Envision instrument with excitation at 320 nm and emission at 520 nm and 495 nm. IC50 value was calculated using XLFit excel add-in version 5.4.0.8 software. The calculation formula of the inhibition rate was shown in formula 5-1, wherein max is the Ratio of the DMSO control, min is the Ratio of the negative control without enzyme, and sample is the Ratio of the compound. Ratio = RFU520nm /RFU495nm [formula] Inhibition% = (max−sample)/(max−min) × 100% [formula] Table 5-1 Inhibitory activity of test compounds against HPK1 kinase

[1] = Pharmacokinetic test in mice; format: in vivo, ICR mice; conditions: mouse, plasma
Experimental: Test example 6: Pharmacokinetic test in mice
Experimental objective: In this experiment, a single dose of test substances was administered to ICR mice intravenously and intragastrically, the concentrations of the test compounds in plasma of mice were measured, and the pharmacokinetic characteristics and bioavailability of the test compounds in mice were evaluated.
Experimental animals: Male ICR mice, 20-35 g, purchased from Chengdu Dossy Experimental Animals Co., Ltd. (SCXK (CHUAN) 2020-030).
Experimental method: On the day of the experiment, the ICR mice were randomly grouped according to their body weights. The animals were fasted but with water available overnight before the administration, and fed 4 h after the administration.
Sampling: Blood was taken from the orbits of the mice at specified time points, and placed in an EDTAK2 centrifuge tube. Centrifugation was performed at 5000 rpm at 4°C for 10 min, and the plasma was collected.
Time points for plasma collection in G1 and G1-2 groups: 0, 5 min, 15 min, 30 min, 1 h, 2 h, 4 h, 7 h, and 24 h.
Time points for plasma collection in G2 and G2-2 groups: 0, 5 min, 15 min, 30 min, 1 h, 2 h, 4 h, 7 h, and 24 h.
Before analysis and detection, all the samples were stored at -60°C or lower. The samples were analysed quantitatively by LC-MS/MS. Table 6-1 PK data of test compound drug in mice

[2] = Pharmacokinetic test in rats; format: in vivo, SD rats; conditions: rat, plasma
Experimental: Test example 7: Pharmacokinetic test in rats
Experimental animals: Male SD rats, 180-200 g, purchased from Chengdu Dossy Experimental Animals Co., Ltd. with the laboratory animal production license number of SCXK (CHUAN) 2020-030.
Experimental design: on the day of the experiment, the SD rats were randomly grouped according to their body weights. The animals were fasted but with water available overnight before the administration, and fed 4 h after the administration.
Vehicle for intragastric administration: 5% Solutol+5% TPGS+30% PEG400+60% (20% SBE-β-CD)
Blood was taken from the orbits of the […] at specified time points, and placed in an EDTAK2 centrifuge tube. Centrifugation was performed at 5000 rpm for 10 min, and the plasma was collected.
Blood sampling time points for the intravenous administration group were: 0, 5 min, 15 min, 30 min, 1 h, 2 h, 4 h, 6 h, 8 h and 24 h; blood sampling time points for the intragastric administration group were: 0, 5 min, 15 min, 30 min, 1 h, 2 h, 4 h, 6 h, 8 h and 24 h. Before analysis and detection, all the samples were stored at - 60°C or lower. The samples were analysed quantitatively by LC-MS/MS. Table 7-1 PK data of test compound drug in rats

[3] = system: IL-2 secretion by T cells; assay: IL-2 detection assay in cells (ELISA, pan-T cells isolated from PBMCs); format: cell-based; conditions: IL-2, CD3 antibody-coated plate, 24 hours; for Maximum activation fold: maximum activation rate/control group
Experimental: 9. IL-2 detection assay in cells
Activating effect of compounds on IL-2 secretion by T cells was evaluated using the ELISA method. Frozen PBMCs were thawed, and pan-T cells were isolated and purified using a T cell sorting kit (Stemcell, 17951). The cells were resuspended in 1640 complete medium and incubated in a 37°C&5%CO2 incubator overnight. A 96-well plate coated with an anti-human CD3 antibody (Thermo, 16-0037-38) at a final concentration of 5 µg/mL was incubated at 37°C for 2 h. The overnight-cultured cells were collected by centrifugation, the supernatant was discarded, and the cells were resuspended in 1640 complete medium, and seeded in the CD3 antibody-coated 96-well plate at a density of 10^5cells/well. The compounds at different concentrations were added, and the mixture was incubated in a 37°C&5%CO2 incubator for 24 hours. After the incubation was completed, the resulting mixture was centrifuged at 1000 rpm for 1 minute to collect the supernatant, and IL-2 was detected according to the ELISA instructions. DMSO without compounds was used as the control group to calculate the activation rate of the compounds, and prism was used to fit the activation curve. Maximum activation fold = maximum activation rate/control group. Table 9-1 Results of IL-2 activation by test compounds

[4] = ATP working concentration: 1 mM
[5] = ATP working concentration: 1 mM, read-out: IC50

T1 sequence (Q92918 whole entry): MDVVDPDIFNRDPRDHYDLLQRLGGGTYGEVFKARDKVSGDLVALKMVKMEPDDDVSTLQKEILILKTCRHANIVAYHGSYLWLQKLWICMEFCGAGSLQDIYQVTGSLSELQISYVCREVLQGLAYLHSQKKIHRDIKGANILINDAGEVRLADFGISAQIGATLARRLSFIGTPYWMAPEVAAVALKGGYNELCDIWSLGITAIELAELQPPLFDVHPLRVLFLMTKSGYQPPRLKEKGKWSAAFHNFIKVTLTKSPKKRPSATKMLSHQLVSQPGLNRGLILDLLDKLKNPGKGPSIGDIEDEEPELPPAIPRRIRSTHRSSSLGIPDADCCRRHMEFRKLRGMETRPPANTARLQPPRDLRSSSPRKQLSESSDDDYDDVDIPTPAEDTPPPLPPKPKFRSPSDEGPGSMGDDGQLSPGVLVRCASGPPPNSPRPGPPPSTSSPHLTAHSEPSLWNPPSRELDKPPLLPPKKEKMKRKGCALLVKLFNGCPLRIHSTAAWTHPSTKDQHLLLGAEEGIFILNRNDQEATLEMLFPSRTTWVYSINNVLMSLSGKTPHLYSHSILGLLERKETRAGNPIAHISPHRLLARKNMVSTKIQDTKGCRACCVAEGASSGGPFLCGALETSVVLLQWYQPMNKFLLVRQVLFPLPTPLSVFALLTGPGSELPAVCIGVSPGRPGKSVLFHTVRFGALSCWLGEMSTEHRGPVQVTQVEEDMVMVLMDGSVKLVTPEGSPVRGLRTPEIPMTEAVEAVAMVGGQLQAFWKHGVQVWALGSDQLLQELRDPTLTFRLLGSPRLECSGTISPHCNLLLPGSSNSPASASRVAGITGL

Structure (SMILES) | DC50 (HPK1 protein) | IC50 (HPK1 kinase; [4]) | IC50 (HPK1 kinase) | AUC ([1]; po, i. g., 10 mg/kg) | Cmax ([1]; po, i. g., 10 mg/kg) | half-life ([1]; po, i. g., 10 mg/kg) | also measured
O=C1CC[C@H](NC(=O)c2cc3c(cc2F)N2CCN(CC4CC5(CCN(c6ccc(Nc7ccc(-c8cnc9cc(F)ccn89)c8c7C(=O)NC8)nc6)CC5)C4)C[C@H]2CC3)C(=O)N1 [Trifluoroacetic acid salt of compound 36] | < 20 nM | < 50 nM |  |  |  |  | 
CN(C)Cc1nc(Nc2ccc(-c3cnc4cc(F)ccn34)c3c2C(=O)NC3)ccc1C1CCN(CC2CCN(c3ccc(N4CCC(=O)NC4=O)c(F)c3)CC2)CC1 [Trifluoroacetic acid salt of compound 9] | < 20 nM |  | < 50 nM |  |  |  | 
O=C1CC[C@H](NC(=O)c2cc3c(cc2F)N2CCN(CC4CCN(c5ccc(Nc6ccc(-c7cnc8cc(F)ccn78)c7c6C(=O)NC7)nc5)CC4)C[C@H]2CC3)C(=O)N1 [Trifluoroacetic acid salt of compound 8] | < 20 nM | < 50 nM |  | 18300 ng·h/mL | 1460 ng/mL | 4.38 h | 
O=C1CCN(c2cc3c(cc2F)N2CCN(C4CCN(c5ccc(Nc6ccc(-c7cnc8cc(F)ccn78)c7c6C(=O)NC7)nc5)CC4)C[C@H]2CC3)C(=O)N1 [Trifluoroacetic acid salt of compound 14] | < 20 nM |  | < 50 nM |  |  |  | 
O=C1CC[C@H](NC(=O)c2cc3c(cc2F)N2CCN(CC4CC5(CCN(c6ccc(Nc7ccc(-c8cnc9cc(F)ccn89)c8c7C(=O)NC8)nc6)CC5)C4)C[C@@H]2CC3)C(=O)N1 [Trifluoroacetic acid salt of compound 34] | < 20 nM | < 50 nM |  |  |  |  | 
O=C1CCN(c2cc3c(cc2F)N2CCN(C4CCN(c5ccc(Nc6ccc(-c7cnc8cc(F)ccn78)c7c6C(=O)NC7)nc5)CC4)C[C@@H]2CC3)C(=O)N1 [Trifluoroacetic acid salt of compound 13] | < 20 nM |  | < 50 nM |  |  |  | 
O=C1CCN(c2cc3c(cc2F)N2CCN(C4CC5(CCN(c6ccc(Nc7ccc(-c8cnc9cc(F)ccn89)c8c7C(=O)NC8)nc6)CC5)C4)C[C@@H]2CC3)C(=O)N1 [Trifluoroacetic acid salt of compound 20] | < 20 nM |  | < 50 nM | 12600 ng·h/mL | 1010 ng/mL | 5.51 h | clearance ([2]; IV, 2.5 mg/kg): 13.4 mL/min/kg; half-life ([2]; IV, 2.5 mg/kg): 4.78 h; AUC ([2]; po, i. g., 10 mg/kg): 5310 ng·h/mL; Cmax ([2]; po, i. g., 10 mg/kg): 382 ng/mL; half-life ([2]; po, i. g., 10 mg/kg): 5.29 h
O=C1CCN(c2cc3c(cc2F)N2CCN(CC4CC5(CCN(c6ccc(Nc7ccc(-c8cnc9cc(F)ccn89)c8c7C(=O)NC8)nc6)CC5)C4)C[C@H]2CC3)C(=O)N1 [Compound 16] |  |  |  |  |  |  | DC50 (HPK1 protein; read-out: DC50): < 20 nM; IC50 (HPK1 kinase; [5]): < 50 nM
Cn1ccc2c(-c3ccc(Nc4ccc(N5CCC(CN6CCN7c8cc(F)c(N9CCC(=O)NC9=O)cc8CC[C@H]7C6)CC5)cn4)c4c3CNC4=O)ccnc21 [Trifluoroacetic acid salt of compound 35] | < 20 nM |  | < 50 nM | 37100 ng·h/mL | 2650 ng/mL | 12.1 h | Maximum activation fold [3]: >10
CN(C)Cc1nc(Nc2ccc(-c3cnc4cc(F)ccn34)c3c2C(=O)NC3)ccc1[C@@H]1CCOC1 [Control compound 1, reference compound] |  |  |  | 248 ng·h/mL | 93.8 ng/mL | 2.05 h | clearance ([1]; IV, 2.5 mg/kg): 169 mL/min/kg; half-life ([1]; IV, 2.5 mg/kg): 0.89 h; clearance ([2]; IV, 2.5 mg/kg): 233 mL/min/kg; half-life ([2]; IV, 2.5 mg/kg): 0.986 h; AUC ([2]; po, i. g., 10 mg/kg): 61.1 ng·h/mL; Cmax ([2]; po, i. g., 10 mg/kg): 14.6 ng/mL; half-life ([2]; po, i. g., 10 mg/kg): 1.71 h; Activation fold at 100 nM concentration [3]: <10; Maximum activation fold [3]: <10
O=C1CC[C@H](NC(=O)c2cc3c(cc2F)N2CCN(CC4CCN(c5ccc(Nc6ccc(-c7cnc8cc(F)ccn78)c7c6C(=O)NC7)nc5)CC4)C[C@@H]2CC3)C(=O)N1 [Trifluoroacetic acid salt of compound 7] | < 20 nM | < 50 nM |  |  |  |  | Activation fold at 100 nM concentration [3]: >10; Maximum activation fold [3]: >10
O=C1CCN(c2cc3c(cc2F)N2CCN(CC4CC5(CCN(c6ccc(Nc7ccc(-c8cnc9cc(F)ccn89)c8c7C(=O)NC8)nc6)CC5)C4)C[C@@H]2CC3)C(=O)N1 [Trifluoroacetic acid salt of compound 15] | < 20 nM | < 50 nM |  | 23600 ng·h/mL | 1620 ng/mL | 7.64 h | 
O=C1CCC(c2ccc(N3CCN(CC4CCN(c5ccc(Nc6ccc(-c7cnc8cc(F)ccn78)c7c6C(=O)NC7)nc5)CC4)CC3)cc2F)C(=O)N1 (single isomer, unassigned) [Compound 1-1] |  |  |  |  |  |  | IC50 (HPK1 kinase; [5]): < 50 nM; Activation fold at 100 nM concentration [3]: >10
